Test results from US20120046273A1, “COMPOUNDS AND COMPOSITIONS FOR COGNITION-ENHANCEMENT, METHODS OF MAKING, AND METHODS OF TREATING” (MITHRIDION, INC., priority 2009, published 2012).

Legend:
anesthetized normal rats = experiment: In vivo measurement of salivation; parameters: species or system rat; conditions: anesthetized normal rats, dose-dependent between about 0.1 mg/kg and 1 mg/kg
Experimental: Suitable doses of test compounds or drug substances were administered using standard techniques to Long Evans Hooded rats weighing 225 to 350 grams, or CD-1 mice weighing 30 to 50 grams, which had been anesthetized using 2-3.5%% of isoflurane in oxygen. The animals were placed slightly head-down on an inclined, heated ramp. Rectal temperature was monitored using a thermocouple and the temperature of the heating pad was adjusted manually to maintain normal body temperature. Saliva was collected from the mouth by absorption onto pre-weighed slips of filter paper. The filter paper was changed periodically and the amount of saliva was measured by weighing the filter paper slips

[1] = system: pooled male Sprague-Dawley rat liver microsomes; experiment: Metabolism by rat liver microsomes; assay type: in vitro ADME; conditions: 6 hours incubation
Experimental: Compounds were incubated with pooled male Sprague-Dawley rat liver microsomes (BD Biosciences, #452501) and an NADP-regenerating system in a phosphate buffer (pH 7.4) for a total of 6 hours. Aliquots were removed every 2 hours, and 1% formic acid was added to halt the reaction. Samples were centrifuged, filtered through 0.2 micron spinfilter and the amount of each compound in the supernatants was quantitated using LC/MS/MS.

[2] = system: apomorphine induced climbing; experiment: Apomorphine induced climbing model of psychosis; assay type: in vivo, CD-I mice
Procedure, shortened: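 CD-I mice (1-2 months) dosed subcutaneously under isoflurane with compound or PBS vehicle (PBS or 96% PBS/4% hydroxypropyl-beta-cyclodextrin, 5 ml/kg), then 2 mg/kg apomorphine 5 min later. Climbing (≥3 paws off ground) in wire mesh cylinders scored for 1 min every 5 min over 60 min after dosing.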

human FMO1 Supersomes = target: T1, human FMO1 Supersomes (Homo sapiens, UniProt Q01740); experiment: Metabolism by flavin monoxygenase 1 (FMO1) Supersomes; assay type: in vitro ADME
T1 construct: purchased BD Biosciences 456241
T1 sequence (Q01740 1-532): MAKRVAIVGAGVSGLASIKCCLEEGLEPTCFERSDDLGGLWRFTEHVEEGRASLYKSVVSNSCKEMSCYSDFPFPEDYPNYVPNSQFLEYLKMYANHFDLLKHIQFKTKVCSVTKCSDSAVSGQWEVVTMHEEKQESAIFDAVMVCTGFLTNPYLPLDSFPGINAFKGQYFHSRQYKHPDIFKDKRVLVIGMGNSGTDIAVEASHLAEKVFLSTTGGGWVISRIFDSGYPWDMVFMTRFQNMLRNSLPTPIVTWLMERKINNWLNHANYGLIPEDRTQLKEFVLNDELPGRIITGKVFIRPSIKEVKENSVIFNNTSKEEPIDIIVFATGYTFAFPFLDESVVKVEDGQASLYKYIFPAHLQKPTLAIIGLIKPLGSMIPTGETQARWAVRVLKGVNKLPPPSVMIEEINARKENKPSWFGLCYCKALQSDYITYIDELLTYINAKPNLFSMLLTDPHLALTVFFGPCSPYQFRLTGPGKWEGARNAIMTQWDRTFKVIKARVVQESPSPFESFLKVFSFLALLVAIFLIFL
Experimental: […] Aliquots were removed every 10 minutes, and 1% formic acid was added to halt the reaction. Samples were centrifuged, filtered through 0.2 micron spinfilter and the amount of each compound in the supernatants was quantitated using LC/MS/MS.

[3] = rat, in vivo, po, 1 hour
in vivo = conditions: rat, po
[4] = system: A-beta 1-40 and A-beta 1-42; experiment: A-beta in hippocampal microdialysate; assay type: in vivo, Tg-2576 transgenic mice; conditions: Tg-2576 mice
Source text: These mice have high concentrations of A-beta in their brain tissue, thought to be the cause of neuron death in Alzheimer's disease, and accumulate amyloid plaques, recapitulating one of the hallmark pathological features of Alzheimer's disease.

Question: What does the source list for `Cc1noc(C2CCCNC2)n1` (racemic) [Compound 82, 3-Methyl-5-(piperidin-3-yl)-1,2,4-oxadiazole]?
Answer: salivation side effect (anesthetized normal rats): causes salivation; extent of metabolism in rat liver microsomes [1]: far more stable than compounds 126 and 127; Climbing Mean ([2]; 82 (0.1 mg/kg) + APO): 8.9 s; Climbing Mean ([2]; 82 + APO + N-Methyl Scopolamine (0.3 mg/kg)): 12.3 s; Climbing Mean ([2]; 82 + APO + scopolamine (0.3 mg/kg)): 47.0 s; activity in the apomorphine induced climbing model ([2]; mice, sc): highly active and highly potent; potency in inhibiting climbing compared with haloperidol ([2]; mice, sc): equipotent to haloperidol; extent of metabolism in FMO Supersomes (human FMO1 Supersomes): less than half metabolized; Brain/plasma ratio [3]: 2.38; Kp at 1 hour (in vivo): 2.38; reduction of the concentration of A-beta 1-40 [4]: approximately 40%; reduction of the concentration of A-beta 1-42 [4]: approximately 40%; PAMPA (? × 106): 2.56 ? × 106; rate of crossing the lipid layer in the PAMPA test: much higher rate
